Laboratory results: patent US10829496B2, “Thienopyridines and benzothiophenes useful as IRAK4 inhibitors” (BRISTOL-MYERS SQUIBB COMPANY, priority 2017, dated 2020)

How the values were obtained:
IRAK4 = IRAK4 (Homo sapiens (Human), UniProt Q9NWZ3); experiment: IRAK4 Inhibition Assay; type: biochemical; details: ATP 500 μM; IRAK4 0.6 nM; 60 min at room temperature
Description: The assays were performed in U-bottom 384-well plates. The final assay volume was 30 μL prepared from 15 μL additions of enzyme and substrates (fluoresceinated peptide and ATP) and test compounds in assay buffer (20 mM HEPES pH 7.2, 10 mM MgCl2, 0.015% Brij 35 and 4 mM DTT). The reaction was initiated by the combination of IRAK4 with substrates and test compounds. The reaction mixture was incubated at room temperature for 60 min. and terminated by adding 45 μL of 35 mM EDTA to each sample. The reaction mixture was analyzed on the Caliper LABCHIP® 3000 (Caliper, Hopkinton, Mass.) by electrophoretic separation of the fluorescent substrate and phosphorylated product. Inhibition data were calculated by comparison to no enzyme control reactions for 100% inhibition and vehicle-only reactions for 0% inhibition. The final concentrations of reagents in the assays are ATP, 500 μM; FL-IPTSPITTTYFFFKKK peptide 1.5 μM; IRAK4, 0.6 nM; and DMSO, 1.6%.

[1] = Caco-2 Permeability Assay; type: in vitro ADME; details: human, 3 μM compound, 2 hours at 37° C., direction not given
Description: Caco-2 Permeability Assay
Thirteen to 27 days prior to assay, Caco-2 cells were seeded onto collagen-coated polycarbonate filter membranes in 24-well transwell plates at a density of 1.45×10^5 cells/cm^2, approximately 4.8×10^4 cells per well. The cells were grown in a culture medium consisting of DMEM supplemented with 10% fetal bovine serum, 10 mM HEPES, 1% nonessential amino acids, 2 mM L-glutamine, 100 U/mL penicillin-G, and 100 μg/mL streptomycin. The culture medium was replaced every 3 days and the cells were maintained at 37° C. in a 95% relative humidity and 5% CO2 atmosphere. The cells were evaluated for tight junction formation just prior to assay. The test compound was solubilized to 10 mM in 100% DMSO and diluted to 3 μM in assay buffer. Permeability studies were initiated by adding 200 μL assay buffer plus/minus compound to the apical transwell compartment and 600 μL assay buffer plus/minus compound to the basolateral compartment of the 24-well transwell low-binding cluster plate. For apical-to-basolateral (A to B) permeability (absorptive direction), buffer containing compound was placed in the apical compartment (donorwells), while buffer alone was placed in the corresponding basolateral compartments (receiverwells). For basolateral-to-apical (B to A) permeability (secretive direction), buffer containing compound was placed in the basolateral compartment (donor wells), while buffer alone was placed in the corresponding apical compartments (receiver wells). Transwells were then incubated for 2 hours at 37° C. in a 95% relative humidity and 5% CO2 atmosphere with gentle agitation. Following incubation, 100 μL was removed from each apical and basolateral compartment and transferred to 96-well low binding plates that had been previously loaded with 100 μL/well of acetonitrile containing 250 nM propranolol, 250 nM diclofenac, and 500 nM tolbutamide as internal standards. The samples were subsequently analyzed by LC-MS/MS to determine concentrations of compound.

[2] = system: IL-6 levels in human whole blood stimulated with a TLR2 agonist; experiment: IRAK4 Whole Blood Assay (TLR2 agonist lipoteichoic acid-stimulated IL-6); type: cell-based; details: 10 μg/mL lipoteichoic acid, 5 hours, IL-6 readout
Description: Human whole blood containing the anti-coagulant ACD-A was plated in 384-well plate (25 μL/well) and incubated with compounds for 60 minutes at 37° C. in a 5% CO2 incubator. The blood was stimulated with a TLR2 agonist, 10 μg/mL final concentration of lipoteichoic acid (Invivogen, San Diego, Calif.) in 25 μL RPMI (Gibco) for 5 hours in a 5% CO2 incubator. At the end of the incubation, plates were centrifuged at 2300 rpm for 5 minutes. Supernatants were harvested and analyzed for IL-6 levels by Flow Cytometry beads assay (BD Biosciences, San Jose, Calif.).

Sequence of IRAK4 (Q9NWZ3 whole entry): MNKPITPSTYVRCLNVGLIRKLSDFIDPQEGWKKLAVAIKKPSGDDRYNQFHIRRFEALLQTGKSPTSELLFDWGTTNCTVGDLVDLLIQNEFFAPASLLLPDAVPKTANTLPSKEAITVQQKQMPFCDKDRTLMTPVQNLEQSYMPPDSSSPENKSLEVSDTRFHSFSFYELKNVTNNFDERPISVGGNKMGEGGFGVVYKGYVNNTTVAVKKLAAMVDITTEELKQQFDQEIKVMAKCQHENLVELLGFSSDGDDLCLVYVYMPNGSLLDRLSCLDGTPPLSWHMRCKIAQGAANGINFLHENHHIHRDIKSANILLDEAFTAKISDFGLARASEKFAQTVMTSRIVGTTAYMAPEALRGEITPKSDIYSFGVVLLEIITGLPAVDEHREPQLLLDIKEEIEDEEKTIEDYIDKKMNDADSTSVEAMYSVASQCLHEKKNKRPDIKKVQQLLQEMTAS

Row | IC50 (IRAK4) [nM] | Papp at 2 h, 3 µM [1] [×10⁻⁶ cm/s] | EC50 [2] [nM] | Molecule
1 | 615 |  |  | COc1nc2c(OCC3COCC(=O)N3)csc2cc1C(N)=O (racemic) [Example 7, 5-methoxy-3-((5-oxomorpholin-3-yl)methoxy)thieno[3,2-b]pyridine-6-carboxamide]
2 | 36.2 |  |  | COc1nc2c(OC[C@@H]3CC(C)C(=O)N3)csc2cc1C(N)=O (single isomer, unassigned) [Example 13]
3 | 459 |  |  | COc1nc2c(OC[C@@H]3CC(C)C(=O)N3)csc2cc1C(N)=O (single isomer, unassigned) [Example 14]
4 | 63.4 |  |  | CCC1C[C@@H](COc2csc3cc(C(N)=O)c(OC)nc23)NC1=O (single isomer, unassigned) [Example 15]
5 | 98.1 |  |  | CCC1C[C@@H](COc2csc3cc(C(N)=O)c(OC)nc23)NC1=O (single isomer, unassigned) [Example 16]
6 | 0.6 | 10.2 | 58 | CC[C@H]1[C@@H](COc2csc3cc(C(N)=O)c(OC)nc23)NC(=O)C1(F)F [Example 1, 3-(((2S,3S)-3-Ethyl-4,4-difluoro-5-oxopyrrolidin-2-yl)methoxy)-5-methoxythieno[3,2-b]pyridine-6-carboxamide]
7 | 1.2 | 7.3 | 205 | CC[C@@H]1[C@H](F)C(=O)N[C@@H]1COc1csc2cc(C(N)=O)c(OC)nc12 [Example 2, 3-(((2S,3S,4S)-3-Ethyl-4-fluoro-5-oxopyrrolidin-2-yl)methoxy)-5-methoxythieno[3,2-b]pyridine-6-carboxamide]
8 | 558 |  |  | COc1cc2c(OC[C@@H]3CCC(=O)N3)csc2nc1C(N)=O [Example 3, (S)-5-Methoxy-3-((5-oxopyrrolidin-2-yl)methoxy)thieno[2,3-b]pyridine-6-carboxamide]
9 | 0.4 | 8.5 | 153 | CC[C@@H]1[C@H](F)C(=O)N[C@@H]1COc1csc2cc(C(N)=O)c(OC)cc12 [Example 4, 3-(((2S,3S,4S)-3-ethyl-4-fluoro-5-oxopyrrolidin-2-yl)methoxy)-5-methoxybenzo[b]thiophene-6-carboxamide]
10 | 20.3 |  | 2010 | COc1nc2c(OC[C@@H]3CCC(=O)N3)csc2cc1C(N)=O [Example 5, (S)-5-methoxy-3-((5-oxopyrrolidin-2-yl)methoxy)thieno[3,2-b]pyridine-6-carboxamide]
11 | 1 | 8.1 | 3210 | CC[C@@H]1CC(=O)N[C@@H]1COc1csc2cc(C(N)=O)c(OC)nc12 [Example 6, 3-(((2S,3R)-3-ethyl-5-oxopyrrolidin-2-yl)methoxy)-5-methoxythieno[3,2-b]pyridine-6-carboxamide]
12 | 0.7 | 4.2 | 92 | CC[C@H]1[C@@H](COc2csc3cc(C(N)=O)c(OC)nc23)NC(=O)[C@@H]1F [Example 8, 3-(((2S,3S,4R)-3-ethyl-4-fluoro-5-oxopyrrolidin-2-yl)methoxy)-5-methoxythieno[3,2-b]pyridine-6-carboxamide]
13 | 4 |  | 473 | COc1nc2c(OC[C@@H]3C[C@@H](F)C(=O)N3)csc2cc1C(N)=O [Example 11, 3-(((2S,4R)-4-fluoro-5-oxopyrrolidin-2-yl)methoxy)-5-methoxythieno[3,2-b]pyridine-6-carboxamide]
14 | 2.5 |  | 261 | COc1nc2c(OC[C@H]3NC(=O)C[C@H]3C(F)F)csc2cc1C(N)=O [Example 12, 3-(((2S,3R)-3-(difluoromethyl)-5-oxopyrrolidin-2-yl)methoxy)-5-methoxythieno[3,2-b]pyridine-6-carboxamide]
15 | 6 |  | 893 | COc1nc2c(OC[C@H]3NC(=O)C[C@H]3C)csc2cc1C(N)=O [Example 17, 5-methoxy-3-(((2S,3R)-3-methyl-5-oxopyrrolidin-2-yl)methoxy)thieno[3,2-b]pyridine-6-carboxamide]
16 | 2.8 |  | 962 | COc1nc2c(OC[C@H]3NC(=O)[C@H](F)[C@H]3C3CC3)csc2cc1C(N)=O [Example 18, 3-(((2S,3S,4R)-3-cyclopropyl-4-fluoro-5-oxopyrrolidin-2-yl)methoxy)-5-methoxythieno[3,2-b]pyridine-6-carboxamide]
17 | 10.6 | 22.5 | 3300 | CC[C@@H]1CC(=O)N[C@@H]1COc1c(C)sc2cc(C(N)=O)c(OC)nc12 [Example 19, 3-(((2S,3R)-3-ethyl-5-oxopyrrolidin-2-yl)methoxy)-5-methoxy-2-methylthieno[3,2-b]pyridine-6-carboxamide]
18 | 19.1 |  | 473 | CC[C@@H]1CC(=O)N[C@@H]1COc1csc2cc(C(N)=O)c(OC3CC3)nc12 [Example 20, 5-cyclopropoxy-3-(((2S,3R)-3-ethyl-5-oxopyrrolidin-2-yl)methoxy)thieno[3,2-b]pyridine-6-carboxamide]
19 | 1.3 | 13.6 | 127 | COc1nc2c(OC[C@H]3NC(=O)C(F)(F)[C@H]3C)csc2cc1C(N)=O [Example 21, 3-(((2S,3S)-4,4-difluoro-3-methyl-5-oxopyrrolidin-2-yl)methoxy)-5-methoxythieno[3,2-b]pyridine-6-carboxamide]
20 | 33.6 |  |  | CC[C@@H]1[C@H](F)C(=O)N[C@@H]1COc1c(C)sc2cc(C(N)=O)c(OC)nc12 [Example 22, 3-(((2S,3S,4S)-3-ethyl-4-fluoro-5-oxopyrrolidin-2-yl)methoxy)-5-methoxy-2-methylthieno[3,2-b]pyridine-6-carboxamide]
21 | 1.4 | 18.4 | 189 | CC[C@@H]1[C@H](F)C(=O)N[C@@H]1COc1csc2cc(C(N)=O)c(OC(C)C)nc12 [Example 23, 3-(((2S,3S,4S)-3-ethyl-4-fluoro-5-oxopyrrolidin-2-yl)methoxy)-5-isopropoxythieno[3,2-b]pyridine-6-carboxamide]
22 | 20.2 |  | > 10000 | CC[C@@H]1[C@H](F)C(=O)N[C@@H]1COc1csc2cc(C(N)=O)c(OC3CC3)nc12 [Example 24, 5-cyclopropoxy-3-(((2S,3S,4S)-3-ethyl-4-fluoro-5-oxopyrrolidin-2-yl)methoxy)thieno[3,2-b]pyridine-6-carboxamide]
23 | 128 |  |  | COc1nc2c(OC[C@@H]3CCC(=O)N3)c(C)sc2cc1C(N)=O [Example 25, (S)-5-methoxy-2-methyl-3-((5-oxopyrrolidin-2-yl)methoxy)thieno[3,2-b]pyridine-6-carboxamide]
24 | 6.8 | 3.5 |  | CC[C@@H]1OC(=O)N[C@@H]1COc1csc2cc(C(N)=O)c(OC)nc12 [Example 26, 3-(((4R,5S)-5-ethyl-2-oxooxazolidin-4-yl)methoxy)-5-methoxythieno[3,2-b]pyridine-6-carboxamide]
25 | 1.1 | 5.9 | 58 | COc1nc2c(OC[C@H]3NC(=O)[C@H](F)[C@H]3C)csc2cc1C(N)=O [Example 27, 3-(((2S,3S,4R)-4-fluoro-3-methyl-5-oxopyrrolidin-2-yl)methoxy)-5-methoxythieno[3,2-b]pyridine-6-carboxamide]
26 | 0.9 |  | 363 | CC[C@@H]1CC(=O)N[C@@H]1COc1csc2cc(C(N)=O)c(OC)cc12 [Example 29]

Row | Molecule | IC50 (IRAK4) [nM] | Papp at 2 h, 3 µM [1] [×10⁻⁶ cm/s] | EC50 [2] [nM]
27 | 3-(46S,7R)-7-ethyl-4-oxo-5-azaspiro[2.4]heptan-6-yl)methoxy)-5-methoxythieno[3,2-b]pyridine-6-carboxamide [Example 9] | 130 |  | 
